Measured values taken from the supplement of paper PMC10307832.

Tests used:
Test in all cases: relative viability (nuclei count vs DMSO), 5 days (fraction); higher = more cells survive
Dinaciclib = compound: CCc1cnn2c(NCc3ccc[n+]([O-])c3)cc(N3CCCC[C@H]3CCO)nc12 [Dinaciclib]
How it was run: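 Following overnight incubation at 37 °C, lung cancer cell lines in 1536-well plates were pinned with five library-drug doses (not always all listed) in √10 steps on vehicle-anchored plates. The cells then spent 5 days without medium change before a combined fix, permeabilisation and Hoechst stain, 4× imaging and MetaXpress nuclear counts. Viability is the treated-to-vehicle ratio of nuclei, taken as the median across plates. Only plates with control CV below 25% and at least one doubling passed.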

Dinaciclib + Trametinib = compound: CCc1cnn2c(NCc3ccc[n+]([O-])c3)cc(N3CCCC[C@H]3CCO)nc12 [Dinaciclib] + CC(=O)Nc1cccc(-n2c(=O)n(C3CC3)c(=O)c3c(Nc4ccc(I)cc4F)n(C)c(=O)c(C)c32)c1 [Trametinib] (partner 0.02 µM)
How it was run: (§1)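 Lung cancer cell lines were seeded in 1536-well plates and dosed by pin tool the next day, with either a single drug or a fixed anchor-drug dose combined with five library-drug doses (not always all listed) spaced in √10 steps. Five days later, one step fixed the cells and stained their nuclei (final 0.05% Triton X-100, 1% formaldehyde, 1 ug/ml Hoechst), and nuclei were counted on 4× images. Relative viability is the nuclei count in treated wells divided by the count in vehicle wells, and each value is the median of duplicate plates.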

Dinaciclib + Palbociclib = compound: CCc1cnn2c(NCc3ccc[n+]([O-])c3)cc(N3CCCC[C@H]3CCO)nc12 [Dinaciclib] + CC(=O)c1c(C)c2cnc(Nc3ccc(N4CCNCC4)cn3)nc2n(C2CCCC2)c1=O [Palbociclib] (partner 0.5 µM)
How it was run: as §1

Dinaciclib + Luminespib = compound: CCc1cnn2c(NCc3ccc[n+]([O-])c3)cc(N3CCCC[C@H]3CCO)nc12 [Dinaciclib] + CCNC(=O)c1noc(-c2cc(C(C)C)c(O)cc2O)c1-c1ccc(CN2CCOCC2)cc1 [Luminespib] (partner 0.01 µM)
How it was run: as §1

Dinaciclib + Foretinib = compound: CCc1cnn2c(NCc3ccc[n+]([O-])c3)cc(N3CCCC[C@H]3CCO)nc12 [Dinaciclib] + COc1cc2c(Oc3ccc(NC(=O)C4(C(=O)Nc5ccc(F)cc5)CC4)cc3F)ccnc2cc1OCCCN1CCOCC1 [Foretinib] (partner 0.25 µM)
How it was run: as §1

Dinaciclib + OSI-027 = compound: CCc1cnn2c(NCc3ccc[n+]([O-])c3)cc(N3CCCC[C@H]3CCO)nc12 [Dinaciclib] + COc1cccc2cc(-c3nc([C@H]4CC[C@H](C(=O)O)CC4)n4ncnc(N)c34)[nH]c12 [OSI-027] (partner 0.5 µM)
How it was run: as §1

Dinaciclib + Tozasertib = compound: CCc1cnn2c(NCc3ccc[n+]([O-])c3)cc(N3CCCC[C@H]3CCO)nc12 [Dinaciclib] + Cc1cc(Nc2cc(N3CCN(C)CC3)nc(Sc3ccc(NC(=O)C4CC4)cc3)n2)n[nH]1 [Tozasertib] (partner 0.1 µM)
How it was run: as §1

Dinaciclib + Dasatinib = compound: CCc1cnn2c(NCc3ccc[n+]([O-])c3)cc(N3CCCC[C@H]3CCO)nc12 [Dinaciclib] + Cc1nc(Nc2ncc(C(=O)Nc3c(C)cccc3Cl)s2)cc(N2CCN(CCO)CC2)n1 [Dasatinib] (partner 0.075 µM)
How it was run: as §1

Dinaciclib + Phenformin = compound: CCc1cnn2c(NCc3ccc[n+]([O-])c3)cc(N3CCCC[C@H]3CCO)nc12 [Dinaciclib] + N=C(N)NC(=N)NCCc1ccccc1 [Phenformin] (partner 250 µM)
How it was run: as §1

Dinaciclib + AZD7762 = compound: CCc1cnn2c(NCc3ccc[n+]([O-])c3)cc(N3CCCC[C@H]3CCO)nc12 [Dinaciclib] + NC(=O)Nc1cc(-c2cccc(F)c2)sc1C(=O)N[C@H]1CCCNC1 [AZD7762] (partner 0.2 µM)
How it was run: as §1

Dinaciclib + Pemetrexed = compound: CCc1cnn2c(NCc3ccc[n+]([O-])c3)cc(N3CCCC[C@H]3CCO)nc12 [Dinaciclib] + Nc1nc2[nH]cc(CCc3ccc(C(=O)N[C@@H](CCC(=O)O)C(=O)O)cc3)c2c(=O)[nH]1 [Pemetrexed] (partner 0.2 µM)
How it was run: as §1

Dinaciclib + Decitabine = compound: CCc1cnn2c(NCc3ccc[n+]([O-])c3)cc(N3CCCC[C@H]3CCO)nc12 [Dinaciclib] + Nc1ncn([C@H]2C[C@H](O)[C@@H](CO)O2)c(=O)n1 [Decitabine] (partner 2 µM)
How it was run: as §1

Dinaciclib + Vorinostat = compound: CCc1cnn2c(NCc3ccc[n+]([O-])c3)cc(N3CCCC[C@H]3CCO)nc12 [Dinaciclib] + O=C(CCCCCCC(=O)Nc1ccccc1)NO [Vorinostat] (partner 1 µM)
How it was run: as §1

Dinaciclib + Olaparib = compound: CCc1cnn2c(NCc3ccc[n+]([O-])c3)cc(N3CCCC[C@H]3CCO)nc12 [Dinaciclib] + O=C(c1cc(Cc2n[nH]c(=O)c3ccccc23)ccc1F)N1CCN(C(=O)C2CC2)CC1 [Olaparib] (partner 8 µM)
How it was run: as §1

Cell Line: NCI-H2342
- relative viability (Dinaciclib; 0.009487 µM): 1.11
- relative viability (Dinaciclib; 0.03 µM): 0.696
- relative viability (Dinaciclib; 0.09487 µM): 0.368
- relative viability (Dinaciclib; 0.3 µM): 0.301
- relative viability (Dinaciclib + Trametinib; first compound 0.009487 µM): 0.82
- relative viability (Dinaciclib + Trametinib; first compound 0.03 µM): 0.847
- relative viability (Dinaciclib + Trametinib; first compound 0.09487 µM): 0.343
- relative viability (Dinaciclib + Trametinib; first compound 0.3 µM): 0.31
- relative viability (Dinaciclib + Palbociclib; first compound 0.009487 µM): 0.475
- relative viability (Dinaciclib + Palbociclib; first compound 0.03 µM): 0.575
- relative viability (Dinaciclib + Palbociclib; first compound 0.09487 µM): 0.447
- relative viability (Dinaciclib + Palbociclib; first compound 0.3 µM): 0.271
- relative viability (Dinaciclib + Luminespib; first compound 0.009487 µM): 0.715
- relative viability (Dinaciclib + Luminespib; first compound 0.03 µM): 0.511
- relative viability (Dinaciclib + Luminespib; first compound 0.09487 µM): 0.27
- relative viability (Dinaciclib + Luminespib; first compound 0.3 µM): 0.255
- relative viability (Dinaciclib + Foretinib; first compound 0.009487 µM): 0.998
- relative viability (Dinaciclib + Foretinib; first compound 0.03 µM): 0.739
- relative viability (Dinaciclib + Foretinib; first compound 0.09487 µM): 0.273
- relative viability (Dinaciclib + Foretinib; first compound 0.3 µM): 0.274
- relative viability (Dinaciclib + OSI-027; first compound 0.009487 µM): 0.559
- relative viability (Dinaciclib + OSI-027; first compound 0.03 µM): 0.532
- relative viability (Dinaciclib + OSI-027; first compound 0.09487 µM): 0.32
- relative viability (Dinaciclib + OSI-027; first compound 0.3 µM): 0.315
- relative viability (Dinaciclib + Tozasertib; first compound 0.009487 µM): 0.491
- relative viability (Dinaciclib + Tozasertib; first compound 0.03 µM): 0.468
- relative viability (Dinaciclib + Tozasertib; first compound 0.09487 µM): 0.231
- relative viability (Dinaciclib + Tozasertib; first compound 0.3 µM): 0.203
- relative viability (Dinaciclib + Dasatinib; first compound 0.009487 µM): 0.333
- relative viability (Dinaciclib + Dasatinib; first compound 0.03 µM): 0.289
- relative viability (Dinaciclib + Dasatinib; first compound 0.09487 µM): 0.248
- relative viability (Dinaciclib + Dasatinib; first compound 0.3 µM): 0.23
- relative viability (Dinaciclib + Phenformin; first compound 0.009487 µM): 0.737
- relative viability (Dinaciclib + Phenformin; first compound 0.03 µM): 0.543
- relative viability (Dinaciclib + Phenformin; first compound 0.09487 µM): 0.288
- relative viability (Dinaciclib + Phenformin; first compound 0.3 µM): 0.303
- relative viability (Dinaciclib + AZD7762; first compound 0.009487 µM): 0.627
- relative viability (Dinaciclib + AZD7762; first compound 0.03 µM): 0.572
- relative viability (Dinaciclib + AZD7762; first compound 0.09487 µM): 0.206
- relative viability (Dinaciclib + AZD7762; first compound 0.3 µM): 0.225
- relative viability (Dinaciclib + Pemetrexed; first compound 0.009487 µM): 0.851
- relative viability (Dinaciclib + Pemetrexed; first compound 0.03 µM): 0.56
- relative viability (Dinaciclib + Pemetrexed; first compound 0.09487 µM): 0.3
- relative viability (Dinaciclib + Pemetrexed; first compound 0.3 µM): 0.274
- relative viability (Dinaciclib + Decitabine; first compound 0.009487 µM): 0.78
- relative viability (Dinaciclib + Decitabine; first compound 0.03 µM): 0.583
- relative viability (Dinaciclib + Decitabine; first compound 0.09487 µM): 0.269
- relative viability (Dinaciclib + Decitabine; first compound 0.3 µM): 0.284
- relative viability (Dinaciclib + Vorinostat; first compound 0.009487 µM): 0.75
- relative viability (Dinaciclib + Vorinostat; first compound 0.03 µM): 0.685
- relative viability (Dinaciclib + Vorinostat; first compound 0.09487 µM): 0.703
- relative viability (Dinaciclib + Vorinostat; first compound 0.3 µM): 0.323
- relative viability (Dinaciclib + Olaparib; first compound 0.009487 µM): 0.391
- relative viability (Dinaciclib + Olaparib; first compound 0.03 µM): 0.306
- relative viability (Dinaciclib + Olaparib; first compound 0.09487 µM): 0.176
- relative viability (Dinaciclib + Olaparib; first compound 0.3 µM): 0.192
